Legend:
[1] = biological target: T1, IL-17A/F (Homo sapiens, UniProt Q16552+Q96PD4); test: IL-17A/F HEK-Blue Cell Assay; assay type: cell-based; conditions: HEK-Blue IL-17 reporter cells, IL-17A/F stimulation, 20 hours, SEAP readout; for IC50: read-out: IL17AF HEK Blue pIC50 (converted)
T1 sequence (Q16552 24-155): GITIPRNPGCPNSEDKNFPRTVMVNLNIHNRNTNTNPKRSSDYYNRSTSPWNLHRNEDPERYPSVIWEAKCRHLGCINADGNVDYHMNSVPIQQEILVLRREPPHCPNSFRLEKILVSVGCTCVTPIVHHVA
T1 sequence (Q96PD4 31-163): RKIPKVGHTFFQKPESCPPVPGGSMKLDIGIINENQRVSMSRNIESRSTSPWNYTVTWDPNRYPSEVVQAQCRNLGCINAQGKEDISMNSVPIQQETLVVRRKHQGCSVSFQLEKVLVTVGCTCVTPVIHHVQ
Procedure: (§1) The HEK-Blue IL-17 reporter cell line (Fisher #NC1408637) was used for cell-based IL-17A/F inhibition assays. Cells were grown and prepared for assays according to the manufacturer's instructions. This cell line consists of HEK 293 cells that were designed to expressed IL-17RA, IL-17R^C, and the ActI adapter molecule, the combination of which, when stimulated by IL-17A/A activates a NFκB promoter and drives expression of a recombinant Secreted Alkaline Phosphatase (SEAP) geneprotein. Media from the cells is then added to a development reagent (Quanti-Blue Substrate, Fisher #NC9711613), and read at A630.
(§2) Compounds were titrated in DMSO and added to the cells immediately before adding IL-17A/A (Custom from R&D systems, untagged IL-17A/F+BSA as a carrier protein). The cells, compound, and IL-17A/A were then incubated for 20 hours before media was removed for SEAP analysis. The resulting inhibition curve was then analyzed using a Dotmatics screening protocol, and IC50 values were determined using a 4-parameter nonlinear fit. DMSO was added to a universal final concentration of 0.1% to optimize background.

[2] = biological target: T2, IL-17A/A (Homo sapiens, UniProt Q16552); test: IL-17A/A HEK-Blue Cell Assay; assay type: cell-based; conditions: HEK-Blue IL-17 reporter cells, IL-17A/A stimulation, 20 hours, SEAP readout; for IC50: read-out: IL17 AA HEK-5 pIC50 (converted)
T2 sequence (Q16552 24-155): T1 sequence (Q16552 24-155)
Procedure: as §1, with “IL-17A/A” for “IL-17A/F”, “IL-17R^A,” for “IL-17RA,”, “protein.” for “geneprotein.”
as §2, with “in DMSO, with a top final compound concentration of 10 uM” for “in DMSO”, “IL-17A/A (Genscript #Z03228).” for “IL-17A/A (Custom from R&D systems, untagged IL-17A/F+BSA as a carrier protein).”, “background. IL-17A/A inhibition data is provided in Table 1 for selected compounds.” for “background.”

| Compound | IC50 [1] [nM] | IC50 [2] [nM] | IL17 AA HEK-5 pIC50 [2] | IL17AF HEK Blue pIC50 [1] |
| --- | --- | --- | --- | --- |
| CCn1nccc1C(=O)N[C@H](C(=O)Nc1ccc([C@H](C)[C@@H](NC(=O)C(C)C2CC2)C(=O)N2CCN(C)[C@H](C)C2)cc1F)C(C1CC1)C1CC1 (single isomer, unassigned) [Compound 309] | < 10 | < 10 |  |  |
| CCn1nccc1C(=O)N[C@H](C(=O)Nc1ccc([C@H](C)[C@@H](NC(=O)C(C)C2CC2)C(=O)N2CCN(C)[C@H](C)C2)cc1F)C(C1CC1)C1CC1 (single isomer, unassigned) [Compound 310] | 10 to 100 |  | A (pIC50 of greater than or equal 8 as A) |  |
| CCn1nccc1C(=O)N[C@H](C(=O)Nc1ccc([C@H](C)[C@@H](NC(=O)C(C)OCCOC)C(=O)N2CCN(C)[C@H](C)C2)cc1F)C(C1CC1)C1CC1 (single isomer, unassigned) [Compound 311] | 100 to 10000 | 10 to 100 |  |  |
| CCn1nccc1C(=O)N[C@H](C(=O)Nc1ccc([C@H](C)[C@@H](NC(=O)C(C)OCCOC)C(=O)N2CCN(C)CC2)cc1F)C(C1CC1)C1CC1 (single isomer, unassigned) [Compound 314] | 100 to 10000 | 100 to 10000 |  |  |
| CCn1nccc1C(=O)N[C@H](C(=O)Nc1ccc([C@H](C)[C@@H](NC(=O)C(C)OCCOC)C(=O)N2CCN(C)CC2)cc1F)C(C1CC1)C1CC1 (single isomer, unassigned) [Compound 315] |  | 10 to 100 |  | C (7>C≥5) |
| CCn1nccc1C(=O)N[C@H](C(=O)Nc1ccc([C@H](C)[C@@H](NC(=O)C(C)C2CC2)C(=O)N2CCN(C)CC2)cc1F)C(C1CC1)C1CC1 (single isomer, unassigned) [Compound 317] | 10 to 100 | < 10 |  |  |
| CCOC(C)C(=O)N[C@@H](C(=O)N1CCN(C)[C@H](C)C1)[C@@H](C)c1ccc(NC(=O)[C@@H](NC(=O)c2ccnn2CC)C(C2CC2)C2CC2)c(F)c1 (single isomer, unassigned) [Compound 320] | 100 to 10000 | 10 to 100 |  |  |
| CCOC(C)C(=O)N[C@@H](C(=O)N1CCN(C)[C@H](C)C1)[C@@H](C)c1ccc(NC(=O)[C@@H](NC(=O)C2(F)CC2)C(C2CC2)C2CC2)c(F)c1 (single isomer, unassigned) [Compound 321] | 100 to 10000 | 10 to 100 |  |  |
| CCOC(C)C(=O)N[C@@H](C(=O)N1CCN(C)[C@H](C)C1)[C@@H](C)c1ccc(NC(=O)[C@@H](NC(=O)C2(F)CC2)C(C2CC2)C2CC2)c(F)c1 (single isomer, unassigned) [Compound 322] |  | < 10 |  | C (7>C≥5) |
| CCOC(C)C(=O)N[C@@H](C(=O)N1CCN(C)[C@H](C)C1)[C@@H](C)c1ccc(NC(=O)[C@@H](NC(=O)c2ccnn2CC)C(C2CC2)C2CC2)c(F)c1 (single isomer, unassigned) [Compound 323] | 10 to 100 | < 10 |  |  |
| CCn1nccc1C(=O)N[C@H](C(=O)Nc1ccc([C@H](C)[C@@H](NC(=O)C(C)CC(F)(F)F)C(=O)N2CCN(C)[C@H](C)C2)cc1F)C(C1CC1)C1CC1 (single isomer, unassigned) [Compound 324] | 10 to 100 | < 10 |  |  |
| CCn1nccc1C(=O)N[C@H](C(=O)Nc1ccc([C@H](C)[C@@H](NC(=O)C(C)C(F)(F)F)C(=O)N2CCN(C)[C@H](C)C2)cc1F)C(C1CC1)C1CC1 (single isomer, unassigned) [Compound 326] | 100 to 10000 | 10 to 100 |  |  |
| CCOC(C)C(=O)N[C@@H](C(=O)N1CCN(C)CC1)[C@@H](C)c1ccc(NC(=O)[C@@H](NC(=O)c2ccnn2CC)C(C2CC2)C2CC2)c(F)c1 (single isomer, unassigned) [Compound 328] | 10 to 100 | < 10 |  |  |
| CCOC(C)C(=O)N[C@@H](C(=O)N1CCN(C)CC1)[C@@H](C)c1ccc(NC(=O)[C@@H](NC(=O)c2ccnn2CC)C(C2CC2)C2CC2)c(F)c1 (single isomer, unassigned) [Compound 329] | 100 to 10000 | 10 to 100 |  |  |
| CCn1nccc1C(=O)N[C@H](C(=O)Nc1ccc([C@H](C)[C@@H](NC(=O)C(C)CC(F)(F)F)C(=O)N2CCN(C)CC2)cc1F)C(C1CC1)C1CC1 (single isomer, unassigned) [Compound 331] | 100 to 10000 | 10 to 100 |  |  |
| CCn1nccc1C(=O)N[C@H](C(=O)Nc1ccc([C@H](C)[C@@H](NC(=O)C(C)CC(F)(F)F)C(=O)N2CCN(C)CC2)cc1F)C(C1CC1)C1CC1 (single isomer, unassigned) [Compound 332] | 10 to 100 |  | B (8>B≥7 as B) |  |
| CCn1nccc1C(=O)N[C@H](C(=O)Nc1ccc([C@H](C)[C@@H](NC(=O)C(C)C(F)(F)F)C(=O)N2CCN(C)CC2)cc1F)C(C1CC1)C1CC1 (single isomer, unassigned) [Compound 333] | 100 to 10000 | 10 to 100 |  |  |
| CCC(OC)C(=O)N[C@@H](C(=O)N1CCN(C)[C@H](C)C1)[C@@H](C)c1ccc(NC(=O)[C@@H](NC(=O)c2ccnn2CC)C(C2CC2)C2CC2)c(F)c1 (single isomer, unassigned) [Compound 335] | 100 to 10000 | 10 to 100 |  |  |
| CCC(OC)C(=O)N[C@@H](C(=O)N1CCN(C)[C@H](C)C1)[C@@H](C)c1ccc(NC(=O)[C@@H](NC(=O)C2(F)CC2)C(C2CC2)C2CC2)c(F)c1 (single isomer, unassigned) [Compound 336] | 100 to 10000 | 10 to 100 |  |  |
| CCC(OC)C(=O)N[C@@H](C(=O)N1CCN(C)[C@H](C)C1)[C@@H](C)c1ccc(NC(=O)[C@@H](NC(=O)C2(F)CC2)C(C2CC2)C2CC2)c(F)c1 (single isomer, unassigned) [Compound 337] |  | < 10 |  | C (7>C≥5) |
| CCC(OC)C(=O)N[C@@H](C(=O)N1CCN(C)[C@H](C)C1)[C@@H](C)c1ccc(NC(=O)[C@@H](NC(=O)c2ccnn2CC)C(C2CC2)C2CC2)c(F)c1 (single isomer, unassigned) [Compound 338] | 10 to 100 | < 10 |  |  |
| CCC(OC)C(=O)N[C@@H](C(=O)N1CCN(C)CC1)[C@@H](C)c1ccc(NC(=O)[C@@H](NC(=O)c2ccnn2CC)C(C2CC2)C2CC2)c(F)c1 (single isomer, unassigned) [Compound 339] | 100 to 10000 | 10 to 100 |  |  |
| CCC(OC)C(=O)N[C@@H](C(=O)N1CCN(C)CC1)[C@@H](C)c1ccc(NC(=O)[C@@H](NC(=O)c2ccnn2CC)C(C2CC2)C2CC2)c(F)c1 (single isomer, unassigned) [Compound 340] | 10 to 100 | < 10 |  |  |
| CCn1nccc1C(=O)N[C@H](C(=O)Nc1ccc([C@H](C)[C@@H](NC(=O)C(C)Cc2cc(O)no2)C(=O)N2CCN(C)[C@H](C)C2)cc1F)C(C1CC1)C1CC1 (single isomer, unassigned) [Compound 343] | 100 to 10000 | 10 to 100 |  |  |
| CCn1nccc1C(=O)N[C@H](C(=O)Nc1ccc([C@H](C)[C@@H](NC(=O)C(C)Cc2cc(O)no2)C(=O)N2CCN(C)[C@H](C)C2)cc1F)C(C1CC1)C1CC1 (single isomer, unassigned) [Compound 344] | 10 to 100 | < 10 |  |  |
| CCC(=O)NC(C(=O)N1CCN(C)CC1)C(c1ccc(NC(=O)[C@@H](NC(=O)c2ccnn2CC)C(C2CC2)C2CC2)c(F)c1)C(F)(F)F (single isomer, unassigned) [Compound 350] | 100 to 10000 | 100 to 10000 |  |  |
| CCn1nccc1C(=O)N[C@H](C(=O)Nc1ccc(C(C(NC(=O)[C@H](C)OC)C(=O)N2CCN(C)[C@H](C)C2)C(F)(F)F)cc1F)C(C1CC1)C1CC1 (single isomer, unassigned) [Compound 351] | 100 to 10000 | 100 to 10000 |  |  |
| CCC(=O)NC(C(=O)N1CCN(C)CC1)C(c1ccc(NC(=O)[C@@H](NC(=O)c2ccnn2CC)C(C2CC2)C2CC2)c(F)c1)C(F)(F)F (single isomer, unassigned) [Compound 352] |  | 100 to 10000 |  | C (7>C≥5) |
